Data reported in publication PMC12040169 (PLOS Biology, 2025).

assay: in vitro; details: human, hela cells, % viability

Row | Structure (SMILES) | viability at 28.5 h, 10 µM [%]
1 | Cc1cccc(OCC(C)NC(=O)NCCc2cnn(C)c2)c1 (stereo not shown) [CBK304887] | 98.5
2 | CS(=O)(=O)NC1CCCN(Cc2nc(N)c3ccccc3n2)C1 (stereo not shown) [CBK304889] | 93.8
3 | CC(C)Cn1ncc2cc(C(=O)Nc3cccnc3N(C)C)cnc21 [CBK304891] | 87.1
4 | CCn1c(=O)n(CC(C)(C)O)c2cc(S(=O)(=O)N(C)C)ccc21 [CBK304893] | 92.8
5 | COc1ccnc(N2CCN(C(=O)c3cncnc3C)CC2)n1 [CBK304894] | 104
6 | Cc1nc2ccccc2c(C)c1CC(=O)N(C)Cc1cnn(C)c1 [CBK304895] | 96.1
7 | CC(=O)N1CCN(CCNc2ncnc3sc4c(c23)CCC(C)C4)CC1 (stereo not shown) [CBK304897] | 93
8 | COc1ccnc(N2CCN(C(=O)c3cnn(C)c3C3CC3)CC2)n1 [CBK304900] | 85.3
9 | COC(=O)c1ccc(N2CCN(Cc3nc(C)c(C)o3)C(C)C2)cc1 (stereo not shown) [CBK304903] | 105
10 | O=C(Nc1ncn(CC(=O)N2CCCCCC2)n1)c1cccc(F)c1 [CBK304904] | 87.5
11 | Cc1nc(-c2cccnc2)[nH]c(=O)c1CC(=O)N(C)C1CCCC1 [CBK304907] | 83
12 | Cc1cc(NC(=O)CCN2CCC(N3CCNC3=O)CC2)no1 [CBK304909] | 89.9
13 | N#CC1(NC(=O)CN2CCOC(Cn3cccn3)C2)CCCC1 (stereo not shown) [CBK304911] | 95.8
14 | O=C1CCC(C(=O)N2CC3(CCCC3)c3c(F)cccc32)CN1 (stereo not shown) [CBK304914] | 85.7
15 | Cc1cccc(OCC(=O)Nc2ncn(Cc3cccnc3)n2)c1 [CBK304919] | 95.9
16 | Cn1cc(CN2CCCN(C(=O)c3cc4ccccc4[nH]3)CC2)cn1 [CBK304920] | 96
17 | CCN(CC(C)C#N)C(=O)c1nn(-c2ccccc2)c(C)cc1=O (stereo not shown) [CBK304925] | 109
18 | CC(NS(=O)(=O)Cc1ccccc1Cl)C(=O)N1CCCCC1 (stereo not shown) [CBK304928] | 93.7
19 | Cc1nc(CN2CCCC(NCc3cccc(C(N)=O)c3)C2)no1 (stereo not shown) [CBK304929] | 94.2
20 | Cc1cnn(C2CCCN(C(=O)CC3C(=O)Nc4ccccc43)C2)c1 (stereo not shown) [CBK304930] | 81.7
21 | O=C(Cn1cnc2ccc(F)cc2c1=O)N1CCOC2CCCC21 (stereo not shown) [CBK304932] | 90.4
22 | CCNC(=O)C1(NC(=O)Cc2cn3cccc(C)c3n2)CCCCC1 [CBK304933] | 106
23 | CC(=O)N1CCCc2cc(NC(=O)NCCc3cnn(C)c3)ccc21 [CBK304937] | 88.7

Row | Structure (SMILES) | viability at 28.5 h, 10 µM [%]
24 | Cn1cc(C(=O)NC2CCN(c3ccc(C#N)cc3F)CC2)cn1 [CBK304939] | 83.7
25 | Cc1cnn(CC2CC2)c1NC(=O)Cc1csc(N2CCCC2=O)n1 [CBK304940] | 92.4
26 | CNC(=O)CN(CCO)Cc1cc(Br)ccc1F [CBK304941] | 108
27 | CCOc1ccnc(N2CCN(C(=O)CCc3ccsc3)CC2)n1 [CBK304942] | 99.4
28 | COc1ccc(C)cc1-n1ccc(C(=O)NC2(C#N)CCSC2)n1 (stereo not shown) [CBK304943] | 93.1
29 | Cc1cccn2c(=O)cc(CN3CCCC(N4CCNC4=O)C3)nc12 (stereo not shown) [CBK304947] | 88.4
30 | CC1CCC(C(N)=O)CN1C(=O)c1csc(COc2ccc(Cl)cc2)n1 (stereo not shown) [CBK304948] | 102
31 | COC(=O)c1cccn2cc(CN3CCOC4CCCCC43)nc12 (stereo not shown) [CBK304949] | 106
32 | Cc1ccc(C(=O)Nc2ncn(CC(=O)N3CCCCCC3)n2)s1 [CBK304951] | 98.2
33 | COc1ccccc1CC(=O)Nc1ncccc1OCCCC#N [CBK304952] | 91
34 | CCn1ncc2c(C(=O)NC(C)COC)cc(-c3cccs3)nc21 (stereo not shown) [CBK304955] | 87.1
35 | COC(=O)c1cccn2cc(CN3CCSC(C)C3)nc12 (stereo not shown) [CBK304958] | 97.4
36 | Cc1nc2c(c(C)c1CC(=O)NCc1cccc(C#N)c1)c(=O)[nH]n2C [CBK304959] | 92.4
37 | COc1cccc(CC(=O)Nc2ncccc2OCCCC#N)c1 [CBK304961] | 88
38 | Cc1nc(CN2CCCC(NCc3ccc(C(N)=O)cc3)C2)no1 (stereo not shown) [CBK304962] | 88.3
39 | COC(=O)C1CCCN1CC(=O)NCc1ccc(OCC(N)=O)cc1 (stereo not shown) [CBK304970] | 86.1
40 | CC1CC1C(=O)N(C)C1CCN(c2ncnc3ccccc23)CC1 (stereo not shown) [CBK304972] | 83.3
41 | CC1CCc2c(sc3nc(CN4CCCCC4C)[nH]c(=O)c23)C1 (stereo not shown) [CBK304975] | 89.3
42 | CCCn1c(O)cc(=O)nc1SCC(=O)N1CCCc2ccccc21 [CBK304977] | 79.1
43 | Cc1cc(C(=O)N2CCc3c(sc4ncnc(N)c34)C2)c(C)s1 [CBK304980] | 88.5
44 | COc1cccc(CC(=O)Nc2ncccc2C)c1 [CBK304982] | 98.9
45 | Cc1ccc(NC(=O)CCc2c(C)nc(N3CCOCC3)[nH]c2=O)cc1 [CBK304985] | 98.2
46 | Cc1nc(N2CCOCC2)[nH]c(=O)c1CCC(=O)Nc1ccc(F)cc1 [CBK304990] | 91.1
